From ChEMBL document CHEMBL5715954, “Silencing c-Myc translation as a therapeutic strategy through targeting PI3Kδ and CK1ε in hematological malignancies” (Blood, 2017) come the findings set out here.

Holding throughout (set-up): scale not given: the % may be the effect or the level left
In test [1] the target is T1, Testis-specific serine/threonine-protein kinase 3 (Homo sapiens) (UniProt Q96PN8).
T1 sequence (whole entry): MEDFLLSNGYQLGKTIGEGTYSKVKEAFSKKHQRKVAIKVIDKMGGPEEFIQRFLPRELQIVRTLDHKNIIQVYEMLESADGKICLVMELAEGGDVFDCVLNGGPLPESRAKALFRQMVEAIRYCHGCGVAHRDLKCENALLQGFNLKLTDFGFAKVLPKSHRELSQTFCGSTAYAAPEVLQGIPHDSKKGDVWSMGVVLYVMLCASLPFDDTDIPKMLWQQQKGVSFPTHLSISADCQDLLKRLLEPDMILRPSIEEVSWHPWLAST
The test is described as follows: Inhibition of human TSSK3 assessed as enzyme activity at 1 uM using KKKVSRSGLYRSPSMPENLNRPR as substrate preincubated for 20 mins followed by [gamma-33P]-ATP addition and measured after 120 mins by radiometric Hot-SpotSM Kinase assay relative to control.

Test [2] addresses T2, Mitogen-activated protein kinase kinase kinase 7 (Homo sapiens) (UniProt O43318).
T2 sequence (whole entry): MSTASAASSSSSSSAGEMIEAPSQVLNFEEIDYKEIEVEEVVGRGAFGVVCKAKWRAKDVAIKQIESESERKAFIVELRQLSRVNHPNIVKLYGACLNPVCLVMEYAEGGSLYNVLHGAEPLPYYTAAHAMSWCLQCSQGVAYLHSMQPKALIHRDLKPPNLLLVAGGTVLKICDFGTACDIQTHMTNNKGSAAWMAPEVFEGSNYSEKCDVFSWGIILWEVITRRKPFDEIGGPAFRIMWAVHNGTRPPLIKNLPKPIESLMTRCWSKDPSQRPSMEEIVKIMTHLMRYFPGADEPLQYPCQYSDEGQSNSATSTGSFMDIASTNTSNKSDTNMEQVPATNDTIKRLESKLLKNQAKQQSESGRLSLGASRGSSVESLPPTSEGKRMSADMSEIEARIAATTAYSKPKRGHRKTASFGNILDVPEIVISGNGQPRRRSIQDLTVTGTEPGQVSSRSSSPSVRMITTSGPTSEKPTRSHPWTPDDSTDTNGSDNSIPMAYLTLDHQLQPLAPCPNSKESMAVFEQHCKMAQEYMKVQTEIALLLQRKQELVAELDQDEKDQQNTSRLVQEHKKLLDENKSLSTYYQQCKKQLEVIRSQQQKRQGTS
The test is described as follows: Inhibition of human TAK1 assessed as enzyme activity at 1 uM using casein as substrate preincubated for 20 mins followed by [gamma-33P]-ATP addition and measured after 120 mins by radiometric Hot-SpotSM Kinase assay relative to control.

For test [3], the target named is Serine/threonine-protein kinase pim-2 (Homo sapiens) (UniProt Q9P1W9). The test is described as follows: Inhibition of human PIM2 assessed as enzyme activity at 1 uM using RSRHSSYPAGT as substrate preincubated for 20 mins followed by [gamma-33P]-ATP addition and measured after 120 mins by radiometric Hot-SpotSM Kinase assay relative to control.
Test [4] addresses Tyrosine-protein kinase Srms (Homo sapiens) (UniProt Q9H3Y6). The test is described as follows: Inhibition of human SRMS assessed as enzyme activity at 1 uM using poly[Glu:Tyr] (4:1) as substrate preincubated for 20 mins followed by [gamma-33P]-ATP addition and measured after 120 mins by radiometric Hot-SpotSM Kinase assay relative to control.
Test [5] deals with Serine/threonine-protein kinase SIK1 (Homo sapiens) (UniProt P57059). The test is described as follows: Inhibition of human SIK1 assessed as enzyme activity at 1 uM using AMARAASAAALARRR as substrate preincubated for 20 mins followed by [gamma-33P]-ATP addition and measured after 120 mins by radiometric Hot-SpotSM Kinase assay relative to control.
Test [6] concerns the target CDK3/Cyclin E (Homo sapiens) (UniProt P24864+Q00526). Kind of test: Inhibition of human CDK3/cyclin E assessed as enzyme activity at 1 uM using RB Protein as substrate preincubated for 20 mins followed by [gamma-33P]-ATP addition and measured after 120 mins by radiometric Hot-SpotSM Kinase assay relative to control. It counts as protein-complex assay.
The target in test [7] is Mitogen-activated protein kinase kinase kinase 8 (Homo sapiens) (UniProt P41279). Kind of test: Inhibition of human COT1 assessed as enzyme activity at 1 uM using MEK1 (K97R) as substrate preincubated for 20 mins followed by [gamma-33P]-ATP addition and measured after 120 mins by radiometric Hot-SpotSM Kinase assay relative to control.
For test [8], the target named is Protein kinase C alpha type (Homo sapiens) (UniProt P17252). Kind of test: Inhibition of human PKCa assessed as enzyme activity at 1 uM using ERMRPRKRQGSVRRRV as substrate preincubated for 20 mins followed by [gamma-33P]-ATP addition and measured after 120 mins by radiometric Hot-SpotSM Kinase assay relative to control.
Test [9] addresses Mitogen-activated protein kinase 3 (Homo sapiens) (UniProt P27361). Kind of test: Inhibition of human ERK1 assessed as enzyme activity at 1 uM using myelin basic protein as substrate preincubated for 20 mins followed by [gamma-33P]-ATP addition and measured after 120 mins by radiometric Hot-SpotSM Kinase assay relative to control.
Test [10] deals with Insulin receptor (Homo sapiens) (UniProt P06213). The test is described as follows: Inhibition of human IR assessed as enzyme activity at 1 uM using poly[Glu:Tyr] (4:1) as substrate preincubated for 20 mins followed by [gamma-33P]-ATP addition and measured after 120 mins by radiometric Hot-SpotSM Kinase assay relative to control.
Test [11] concerns the target Mitogen-activated protein kinase 1 (Homo sapiens) (UniProt P28482). The test is described as follows: Inhibition of human ERK2 assessed as enzyme activity at 1 uM using myelin basic protein as substrate preincubated for 20 mins followed by [gamma-33P]-ATP addition and measured after 120 mins by radiometric Hot-SpotSM Kinase assay relative to control.
Test [12] concerns the target Ephrin type-A receptor 5 (Homo sapiens) (UniProt P54756). Kind of test: Inhibition of human EPHA5 assessed as enzyme activity at 1 uM using poly[Glu:Tyr] (4:1) as substrate preincubated for 20 mins followed by [gamma-33P]-ATP addition and measured after 120 mins by radiometric Hot-SpotSM Kinase assay relative to control.
For test [13], the target named is Protein kinase C delta type (Homo sapiens) (UniProt Q05655). The test is described as follows: Inhibition of human PKCd assessed as enzyme activity at 1 uM using ERMRPRKRQGSVRRRV as substrate preincubated for 20 mins followed by [gamma-33P]-ATP addition and measured after 120 mins by radiometric Hot-SpotSM Kinase assay relative to control.
Protein kinase C delta type (Homo sapiens), sequence (Q05655 whole entry, looked up): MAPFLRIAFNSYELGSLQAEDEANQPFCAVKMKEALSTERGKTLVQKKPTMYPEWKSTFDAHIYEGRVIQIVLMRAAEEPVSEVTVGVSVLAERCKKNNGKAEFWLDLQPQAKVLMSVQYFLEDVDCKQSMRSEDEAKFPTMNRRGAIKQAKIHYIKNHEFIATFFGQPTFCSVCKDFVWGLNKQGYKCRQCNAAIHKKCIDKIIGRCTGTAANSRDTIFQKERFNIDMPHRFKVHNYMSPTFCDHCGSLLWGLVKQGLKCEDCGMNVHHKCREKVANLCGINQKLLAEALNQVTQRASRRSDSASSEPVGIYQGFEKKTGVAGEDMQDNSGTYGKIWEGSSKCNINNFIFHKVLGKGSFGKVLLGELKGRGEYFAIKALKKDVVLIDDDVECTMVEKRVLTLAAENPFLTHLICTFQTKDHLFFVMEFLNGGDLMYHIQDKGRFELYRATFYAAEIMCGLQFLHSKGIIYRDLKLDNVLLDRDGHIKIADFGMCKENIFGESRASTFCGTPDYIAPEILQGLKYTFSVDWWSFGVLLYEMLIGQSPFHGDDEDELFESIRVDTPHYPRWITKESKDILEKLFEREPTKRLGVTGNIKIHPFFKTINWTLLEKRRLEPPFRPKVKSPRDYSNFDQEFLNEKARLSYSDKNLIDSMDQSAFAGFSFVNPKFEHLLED

Mitogen-activated protein kinase 1 (Homo sapiens), sequence (P28482 whole entry): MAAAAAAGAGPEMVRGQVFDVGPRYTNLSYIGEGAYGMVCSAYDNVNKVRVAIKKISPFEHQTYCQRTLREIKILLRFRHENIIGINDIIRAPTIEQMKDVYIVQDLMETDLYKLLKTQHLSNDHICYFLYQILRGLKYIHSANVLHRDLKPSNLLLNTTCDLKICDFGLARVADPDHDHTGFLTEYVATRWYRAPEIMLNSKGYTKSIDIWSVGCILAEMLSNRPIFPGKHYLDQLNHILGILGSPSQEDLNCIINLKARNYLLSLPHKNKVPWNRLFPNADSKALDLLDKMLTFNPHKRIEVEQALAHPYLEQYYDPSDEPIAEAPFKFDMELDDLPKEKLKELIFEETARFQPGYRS
Serine/threonine-protein kinase SIK1 (Homo sapiens), sequence (P57059 whole entry): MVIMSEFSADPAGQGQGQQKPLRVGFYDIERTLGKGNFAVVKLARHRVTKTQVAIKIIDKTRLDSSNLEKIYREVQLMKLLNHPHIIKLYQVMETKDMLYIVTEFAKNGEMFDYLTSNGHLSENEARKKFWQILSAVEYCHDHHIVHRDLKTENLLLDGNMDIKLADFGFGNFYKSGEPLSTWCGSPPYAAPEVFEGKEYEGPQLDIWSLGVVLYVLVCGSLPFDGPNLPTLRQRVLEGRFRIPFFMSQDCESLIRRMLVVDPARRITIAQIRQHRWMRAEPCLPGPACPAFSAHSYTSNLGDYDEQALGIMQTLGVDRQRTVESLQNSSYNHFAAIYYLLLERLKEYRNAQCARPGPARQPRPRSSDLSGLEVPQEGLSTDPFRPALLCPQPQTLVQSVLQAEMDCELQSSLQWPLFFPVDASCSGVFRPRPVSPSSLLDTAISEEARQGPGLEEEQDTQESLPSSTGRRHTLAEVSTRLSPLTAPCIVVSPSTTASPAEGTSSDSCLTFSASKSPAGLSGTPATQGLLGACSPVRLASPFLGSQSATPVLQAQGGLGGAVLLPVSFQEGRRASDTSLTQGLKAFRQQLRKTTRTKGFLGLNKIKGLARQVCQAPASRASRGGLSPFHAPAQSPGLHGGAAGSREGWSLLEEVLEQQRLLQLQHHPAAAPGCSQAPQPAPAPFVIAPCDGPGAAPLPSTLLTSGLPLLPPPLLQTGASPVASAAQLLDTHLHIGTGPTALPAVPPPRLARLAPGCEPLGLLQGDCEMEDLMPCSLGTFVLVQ
Insulin receptor (Homo sapiens), sequence (P06213 28-758 limits assumed): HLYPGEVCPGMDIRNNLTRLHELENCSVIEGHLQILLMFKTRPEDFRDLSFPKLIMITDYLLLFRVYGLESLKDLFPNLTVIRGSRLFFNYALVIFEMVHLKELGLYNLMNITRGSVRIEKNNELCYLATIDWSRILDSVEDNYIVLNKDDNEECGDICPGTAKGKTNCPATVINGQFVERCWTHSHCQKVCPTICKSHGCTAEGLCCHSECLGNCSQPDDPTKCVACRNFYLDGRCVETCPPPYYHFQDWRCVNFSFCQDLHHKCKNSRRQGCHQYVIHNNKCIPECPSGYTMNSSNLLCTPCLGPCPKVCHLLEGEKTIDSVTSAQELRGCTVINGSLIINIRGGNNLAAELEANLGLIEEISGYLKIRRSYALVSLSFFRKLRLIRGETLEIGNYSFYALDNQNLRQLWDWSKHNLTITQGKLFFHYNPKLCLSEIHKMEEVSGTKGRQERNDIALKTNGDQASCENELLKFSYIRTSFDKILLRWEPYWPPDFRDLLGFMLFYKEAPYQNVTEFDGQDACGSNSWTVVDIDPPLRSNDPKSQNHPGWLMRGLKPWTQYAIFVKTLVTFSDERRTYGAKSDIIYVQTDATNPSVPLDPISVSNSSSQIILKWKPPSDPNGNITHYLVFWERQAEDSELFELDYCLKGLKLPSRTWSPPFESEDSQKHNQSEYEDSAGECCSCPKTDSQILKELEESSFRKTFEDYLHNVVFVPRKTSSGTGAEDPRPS
Insulin receptor (Homo sapiens), sequence (P06213 763-1382 limits assumed): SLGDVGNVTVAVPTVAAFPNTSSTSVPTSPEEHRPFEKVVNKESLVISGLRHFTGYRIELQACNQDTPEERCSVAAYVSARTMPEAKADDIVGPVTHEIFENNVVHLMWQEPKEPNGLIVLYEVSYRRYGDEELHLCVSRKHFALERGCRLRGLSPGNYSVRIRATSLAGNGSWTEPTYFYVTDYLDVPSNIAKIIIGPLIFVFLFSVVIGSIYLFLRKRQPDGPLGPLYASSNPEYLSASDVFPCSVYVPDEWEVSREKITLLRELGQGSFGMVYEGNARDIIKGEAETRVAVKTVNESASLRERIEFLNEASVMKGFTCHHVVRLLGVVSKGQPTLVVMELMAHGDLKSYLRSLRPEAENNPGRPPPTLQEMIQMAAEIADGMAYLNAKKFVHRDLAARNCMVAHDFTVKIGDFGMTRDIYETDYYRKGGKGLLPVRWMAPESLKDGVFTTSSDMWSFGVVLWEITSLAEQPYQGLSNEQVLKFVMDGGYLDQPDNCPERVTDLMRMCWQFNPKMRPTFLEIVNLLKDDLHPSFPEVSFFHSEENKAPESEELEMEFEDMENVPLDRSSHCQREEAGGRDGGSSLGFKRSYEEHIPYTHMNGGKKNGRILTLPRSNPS
Ephrin type-A receptor 5 (Homo sapiens), sequence (P54756 whole entry): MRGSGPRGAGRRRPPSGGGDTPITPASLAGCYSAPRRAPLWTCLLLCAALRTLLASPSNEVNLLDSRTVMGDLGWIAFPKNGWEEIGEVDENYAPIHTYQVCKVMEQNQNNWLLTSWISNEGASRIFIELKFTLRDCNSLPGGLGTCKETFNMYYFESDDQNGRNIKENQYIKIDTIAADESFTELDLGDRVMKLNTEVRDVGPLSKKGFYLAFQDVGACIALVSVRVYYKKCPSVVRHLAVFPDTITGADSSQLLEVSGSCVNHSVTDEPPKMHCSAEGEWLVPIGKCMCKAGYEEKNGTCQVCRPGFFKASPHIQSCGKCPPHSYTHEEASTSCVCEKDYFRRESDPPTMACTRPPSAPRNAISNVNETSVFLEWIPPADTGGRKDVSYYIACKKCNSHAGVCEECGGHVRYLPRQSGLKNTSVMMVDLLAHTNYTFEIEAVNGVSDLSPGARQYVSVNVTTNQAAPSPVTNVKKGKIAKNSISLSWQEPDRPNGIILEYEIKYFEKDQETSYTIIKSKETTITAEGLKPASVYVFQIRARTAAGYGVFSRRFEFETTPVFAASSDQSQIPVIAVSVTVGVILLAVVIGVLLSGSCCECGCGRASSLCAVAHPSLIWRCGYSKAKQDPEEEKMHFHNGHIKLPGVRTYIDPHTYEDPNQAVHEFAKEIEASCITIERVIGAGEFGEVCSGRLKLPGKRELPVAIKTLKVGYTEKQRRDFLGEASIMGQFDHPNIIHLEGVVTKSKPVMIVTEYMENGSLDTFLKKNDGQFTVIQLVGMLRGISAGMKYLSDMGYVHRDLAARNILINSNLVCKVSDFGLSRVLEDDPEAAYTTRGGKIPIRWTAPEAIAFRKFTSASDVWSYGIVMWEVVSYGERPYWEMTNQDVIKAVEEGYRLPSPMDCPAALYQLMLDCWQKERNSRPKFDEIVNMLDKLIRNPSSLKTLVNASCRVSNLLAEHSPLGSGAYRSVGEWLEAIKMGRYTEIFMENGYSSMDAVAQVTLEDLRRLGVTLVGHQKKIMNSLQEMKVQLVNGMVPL

Consider `C[C@H](Nc1ncnc2nc[nH]c12)c1cc2cccc(Cl)c2c(=O)n1-c1ccccc1`, for which the Activity in [1] was found to be 109%; in test [2] it was 98.7%; in test [3] it was 98.1%; in [4], 100%; in test [5], 95.7%; in test [6] it was 88%. Further, the Activity worked out at 96.8% in test [7]; 116% in test [8]; 95.9% in test [9]; 98.2% in test [10]; 97.2% in [11]; 104% in test [12]. For the same compound, the Activity in test [13] was determined as 93.9%.

As for `CC[C@H](Nc1ncnc2[nH]cnc12)c1nc2cccc(F)c2c(=O)n1-c1ccccc1`, the Activity in test [1] was 102%; in test [2], 102%; in test [3] it was 100%; in test [4], 102%; in test [5], 95.5%; in [6], 86.8%. The Activity in test [7] was 101%; in test [8] it was 103%; in test [9], 96%; in [10] it was 99.5%; in [11] it was 93.6%; in test [12], 105%. Moreover, in test [13], the Activity was 95.2%.

Turning to `CC(C)Oc1ccc(-c2nn([C@@H](C)c3oc4ccc(F)cc4c(=O)c3-c3cccc(F)c3)c3ncnc(N)c23)cc1F` [UMBRALISIB], the Activity was found to be 107% in test [1]; 99% in test [2]; 101% in test [3]; 105% in test [4]; 98.2% in test [5]; 84.3% in [6]. Besides, the Activity in test [7] stood at 98.2%; in test [8], 114%; in [9], 95.8%; in test [10] it was 99.5%; in test [11], 94.2%; in test [12], 103%. Also, the Activity in test [13] came out at 104%.
